{"source": "paper PMC6128263", "about": "(Biochemistry, 2018)", "key": {"Mtb Rv3802 [1]": {"biological_target": "T1, Mtb Rv3802 (Mycobacterium tuberculosis, UniProt O53581)", "T1 sequence (O53581 whole entry)": "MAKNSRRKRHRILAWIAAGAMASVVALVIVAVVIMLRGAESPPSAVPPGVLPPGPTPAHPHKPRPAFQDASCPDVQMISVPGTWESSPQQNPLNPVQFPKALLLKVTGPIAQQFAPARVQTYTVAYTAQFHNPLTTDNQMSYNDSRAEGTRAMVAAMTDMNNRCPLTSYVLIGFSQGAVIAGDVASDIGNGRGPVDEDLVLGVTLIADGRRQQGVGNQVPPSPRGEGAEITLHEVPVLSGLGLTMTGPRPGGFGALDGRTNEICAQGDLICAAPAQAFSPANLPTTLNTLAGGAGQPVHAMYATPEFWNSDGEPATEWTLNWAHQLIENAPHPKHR", "assay_type": "biochemical", "conditions": "100 μM inhibitor, no preincubation time"}, "Mtb Rv3802 [2]": {"biological_target": "T1, Mtb Rv3802", "assay": "biochemical", "assay_type": "biochemical"}, "Mtb Pks13-TE [3]": {"biological_target": "T2, Mtb Pks13-TE (Mycobacterium tuberculosis, UniProt I6X8D2)", "T2 sequence (I6X8D2 1451-1733 limits assumed)": "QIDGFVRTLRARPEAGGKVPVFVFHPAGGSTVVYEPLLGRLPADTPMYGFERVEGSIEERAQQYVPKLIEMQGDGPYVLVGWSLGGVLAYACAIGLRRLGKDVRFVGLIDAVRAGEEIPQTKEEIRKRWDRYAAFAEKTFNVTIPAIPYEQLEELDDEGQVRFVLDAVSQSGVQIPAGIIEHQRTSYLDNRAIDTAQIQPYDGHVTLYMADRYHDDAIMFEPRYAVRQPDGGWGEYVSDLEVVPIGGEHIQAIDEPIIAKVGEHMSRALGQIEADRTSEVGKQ", "assay": "Initial inhibition screen, Pks13-TE activity assay", "assay_type": "biochemical"}, "Mtb Ag85C [4]": {"biological_target": "T3, Mtb Ag85C (Mycobacterium tuberculosis, UniProt P9WQN9)", "T3 sequence (P9WQN9 46-340)": "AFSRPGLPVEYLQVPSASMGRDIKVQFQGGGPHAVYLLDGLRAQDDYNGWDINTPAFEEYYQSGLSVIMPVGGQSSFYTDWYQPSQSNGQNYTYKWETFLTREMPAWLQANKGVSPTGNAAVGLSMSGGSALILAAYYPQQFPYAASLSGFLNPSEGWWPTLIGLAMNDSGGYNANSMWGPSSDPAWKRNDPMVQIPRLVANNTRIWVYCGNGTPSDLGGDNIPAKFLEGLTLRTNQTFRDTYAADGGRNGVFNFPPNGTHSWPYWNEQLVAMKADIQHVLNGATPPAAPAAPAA", "assay": "Ag85C kinact/KI determination", "assay_type": "biochemical"}, "Mtb Ag85C [5]": {"biological_target": "T3, Mtb Ag85C", "assay": "Initial inhibition screen, Ag85C activity assay", "assay_type": "biochemical", "conditions": "for inhibition level of Ag85C: 100 μM inhibitor, 0 min preincubation, compared to the uninhibited control"}, "Mtb Pks13-TE [6]": {"biological_target": "T2, Mtb Pks13-TE", "assay": "Pks13-TE reversible covalent inhibition and influence of trehalose", "assay_type": "biochemical"}, "Rv3802": {"test_system": "Rv3802", "conditions": "THL to Rv3802, cited from earlier work"}, "Mtb strain H37Rv": {"test_system": "Mtb strain H37Rv", "conditions": "cited from earlier work"}, "[7]": {"test_system": "OC[C@H]1O[C@H](O[C@H]2O[C@H](CO)[C@@H](O)[C@H](O)[C@H]2O)[C@H](O)[C@@H](O)[C@@H]1O", "assay": "purified protein, by the assay type", "conditions": "other: Pks13-TE, acyl transfer from 4MH to trehalose; pH 7.5; 37.0 °C"}, "[8]": {"conditions": "20 nM Rv3802, linear rates from 2 to 6 min, no preincubation"}, "[9]": {"conditions": "read-out: increase in inhibition level of Pks13-TE from 0 to 3 h"}, "[10]": {"conditions": "read-out: inhibition level of Pks13-TE at 4 h (decreased to)"}}, "note": "Read-outs that look alike come from different tables or passages of the source."}
{"compound": "CCCCCCCCCCCC(CC1OC(=O)C1CCCCCC)OC(=O)C(CC(C)C)NC=O", "note": "(single isomer, unassigned; ent1) [ent1-THL]", "values": [{"measurement": "inhibition level of Rv3802", "setting": "Mtb Rv3802 [1]; 100 µM", "result": "85.1 ± 1.4", "unit": "%"}, {"measurement": "EC50", "setting": "Mtb Rv3802 [2]; [8]", "result": "15.9 ± 1", "unit": "µM"}]}
{"compound": "CCCCCCCCCCC[C@H](C[C@H]1OC(=O)[C@@H]1CCCCCC)OC(=O)[C@H](CC(C)C)NC=O", "note": "(single isomer, unassigned; ent2) [ent2-THL]", "values": [{"measurement": "inhibition level of Rv3802", "setting": "Mtb Rv3802 [1]", "result": "83.9 ± 0.6", "unit": "%"}, {"measurement": "EC50", "setting": "Mtb Rv3802 [2]; [8]", "result": "15.9 ± 1.1", "unit": "µM"}, {"measurement": "Pks13-TE activity remaining", "setting": "Mtb Pks13-TE [3]; 100 μM inhibitor, 1 h preincubation, compared to uninhibited reactions", "result": "~ 30%"}]}
{"compound": "CCCCCCCCCCCC(CC1OC(=O)C1CCCCCC)OC(=O)C(CC(C)C)NC=O", "note": "(single isomer, unassigned; ent3) [ent3-THL]", "values": [{"measurement": "inhibition level of Rv3802", "setting": "Mtb Rv3802 [1]; 100 µM", "result": "83.0 ± 2.9", "unit": "%"}, {"measurement": "EC50", "setting": "Mtb Rv3802 [2]; [8]", "result": "16.6 ± 0.9", "unit": "µM"}]}
{"compound": "CCCCCCCCCCCC(CC1OC(=O)C1CCCCCC)OC(=O)C(CC(C)C)NC=O", "note": "(single isomer, unassigned; ent4) [ent4-THL]", "values": [{"measurement": "inhibition level of Rv3802", "setting": "Mtb Rv3802 [1]; 100 µM", "result": "79.0 ± 1.7", "unit": "%"}, {"measurement": "EC50", "setting": "Mtb Rv3802 [2]; [8]", "result": "62.1 ± 4.1", "unit": "µM"}]}
{"compound": "CCCCCCCCCCC[C@H](C[C@@H]1OC(=O)[C@H]1CCCCCC)OC(=O)[C@@H](CC(C)C)NC=O", "note": "[2′,5-epi-THL]", "values": [{"measurement": "inhibition level of Rv3802", "setting": "Mtb Rv3802 [1]", "result": "completely inhibit"}, {"measurement": "EC50", "setting": "Mtb Rv3802 [2]; [8]", "result": "0.0287 ± 0.0031", "unit": "µM"}]}
{"compound": "CCCCCCCCCCC[C@@H](C[C@@H]1OC(=O)[C@H]1CCCCCC)OC(=O)[C@@H](CC(C)C)NC=O", "note": "[2′-epi-THL]", "values": [{"measurement": "fold lower binding affinity (KI) compared to THL", "setting": "Mtb Ag85C [4]; Ag85C", "result": "~ 4.5 fold"}, {"measurement": "fold lower kinact/KI value compared to THL", "setting": "Mtb Ag85C [4]; Ag85C", "result": "~ 4 fold"}, {"measurement": "kinact/KI", "setting": "Mtb Ag85C [4]; Ag85C, inhibitor 300 to 12.5 μM, 40 min progress curves", "result": "1.1 ± 0.3 × 10^−3 μM^−1 min^−1"}, {"measurement": "inhibition level of Rv3802", "setting": "Mtb Rv3802 [1]", "result": "completely inhibit"}, {"measurement": "inhibition level of Ag85C", "setting": "Mtb Ag85C [5]", "result": "35.8 ± 2.2", "unit": "%"}, {"measurement": "EC50", "setting": "Mtb Rv3802 [2]; [8]", "result": "0.0092 ± 0.0005", "unit": "µM"}]}
{"compound": "CCCCCCCCCCC[C@H](C[C@@H]1OC(=O)[C@H]1CCCCCC)OC(=O)[C@H](CC(C)C)NC=O", "note": "[5-epi-THL]", "values": [{"measurement": "inhibition level of Rv3802", "setting": "Mtb Rv3802 [1]", "result": "completely inhibit"}, {"measurement": "inhibition level of Ag85C", "setting": "Mtb Ag85C [5]", "result": "12.3 ± 2.6", "unit": "%"}, {"measurement": "EC50", "setting": "Mtb Rv3802 [2]; [8]", "result": "0.0126 ± 0.0012", "unit": "µM"}]}
{"compound": "CCCCCCCCCCC[C@@H](C[C@@H]1OC(=O)[C@H]1CCCCCC)OC(=O)[C@H](CC(C)C)NC=O", "note": "[THL, Tetrahydrolipstatin]", "values": [{"measurement": "retention of covalent coupling with THL, fold longer than Rv3802", "setting": "Mtb Pks13-TE [6]; Pks13-TE versus Rv3802", "result": "at least 10 fold"}, {"measurement": "slowing of the rate of inactivation of Pks13-TE by presence of trehalose", "setting": "Mtb Pks13-TE [6]; THL inhibition with versus without trehalose", "result": "48 ± 6.7", "unit": "%"}, {"measurement": "inhibition at 12.5 µM", "setting": "Mtb Pks13-TE [6]; [9]", "result": "62.3 ± 5", "unit": "%"}, {"measurement": "inhibition at 25 µM", "setting": "Mtb Pks13-TE [6]; [9]", "result": "61.8 ± 3.5", "unit": "%"}, {"measurement": "inhibition at 50 µM", "setting": "Mtb Pks13-TE [6]; [9]", "result": "44.1 ± 3.5", "unit": "%"}, {"measurement": "inhibition at 12.5 µM", "setting": "Mtb Pks13-TE [6]; [10]", "result": "15.2 ± 1.4", "unit": "%"}, {"measurement": "inhibition at 25 µM", "setting": "Mtb Pks13-TE [6]; [10]", "result": "11.6 ± 0.4", "unit": "%"}, {"measurement": "inhibition at 50 µM", "setting": "Mtb Pks13-TE [6]; [10]", "result": "16 ± 2.1", "unit": "%"}, {"measurement": "IC50", "setting": "Rv3802", "result": "low micromolar"}, {"measurement": "Ki", "setting": "Rv3802; read-out: apparent KI", "result": 0.005, "unit": "µM"}, {"measurement": "kinact/KI", "setting": "Mtb Ag85C [4]", "result": 70, "unit": "M⁻¹ s⁻¹"}, {"measurement": "inhibition level of Rv3802", "setting": "Mtb Rv3802 [1]", "result": "completely inhibit"}, {"measurement": "inhibition at 100 µM", "setting": "Mtb Ag85C [5]; read-out: inhibition level of Ag85C", "result": "31.8 ± 5.9", "unit": "%"}, {"measurement": "EC50", "setting": "Mtb Rv3802 [2]", "result": "0.0162 ± 0.0008", "unit": "µM"}, {"measurement": "inhibition at 100 µM", "setting": "Mtb Pks13-TE [3]; read-out: inhibition level of Pks13-TE", "result": "50 to 60", "unit": "%"}, {"measurement": "minimum inhibitory concentration (MIC)", "setting": "Mtb strain H37Rv", "result": "~ 15 μM"}]}
{"compound": "Mtb Pks13-TE (Mycobacterium tuberculosis H37Rv)", "values": [{"measurement": "Km", "setting": "[7]", "result": "56.6 ± 7.9", "unit": "mM"}]}
